Experimental data reported in patent publication US4731376A, “2-(-(2,2,5,5-tetramethyl-3-pyrrolin-3-carbonyl))-amino derivatives” (Alkaloida Vegyeszeti Gyar, priority 1983, dated 1988).

Key:
aconitin arrhythmia = aconitin arrhythmia model on rats (time to ventricular extrasystole, tachycardia, fibrillation; ED125, ED150); format: in vivo, Wistar rats; conditions: for ED125 / ED150: Rattus norvegicus, iv, 95% confidence limits on the next line; for ED125: infusion time to extrasystol 7.6 (control 6.1 minutes), read-out: ED125 (delay of chamber extrasystol); for ED150: infusion time to extrasystol 9.2 (control 6.1 minutes), read-out: ED150 (delay of chamber extrasystol); for time to chamber extrasystol, aconitin infusion / time to chamber tachycardia, aconitin infusion / time to fibrillation, aconitin infusion: 5 minutes before aconitin infusion, X ± S.E.M.
Procedure: Wistar rats (200-220 g) are narcotized with urethane. The vena jugularis is connected with a polyethylene catheter. Using standard EKG-II leads, a control EKG is taken. The test substance and the physiological saline solution used as control are intravenously administered 5 minutes before the aconitin infusion. The aconitin solution is continuous administered at a dose of 5 mg/kg at a rate of 0.1 ml (100 g/minute) as an infusion into the vena jugularis. The progress is monitored by the EKG isoelectric line.
During the test the time to formation of the ventricular extrasystole, ventricular tachycardia and fibrillation were determined.
On the basis of the late occurrence of the ventricula extrasystole, ED125 and ED150 values were determined.

mice = experiment: acute toxicity on mice (LD50, Litchfield-Wilcoxon, after a week); format: in vivo; conditions: i.v., 95% confidence limits on the next line, 10080 min
Procedure: (§1) On the basis of the late occurrence of the ventricula extrasystole, ED125 and ED150 values were determined. The acute toxicities were determined on mice (CELP strain and the LD50 value was calculated after a week using the Litchfield-Wilcoxon method. The antiarrhythmically effective dosage or the LD50 value for several compounds of the various compound types are collected in Table III.

[1] = as above; format: in vivo; conditions: mouse, in vivo, iv, 95% confidence limits on the next line
Procedure: as §1

Compound	ED125 (aconitin arrhythmia) [mg/kg]	ED150 (aconitin arrhythmia) [mg/kg]	LD50 (acute toxicity) (mice) [mg/kg]	time to chamber extrasystol, aconitin infusion (aconitin arrhythmia; 0.5 mg/kg i.v.) [min]	time to chamber tachycardia, aconitin infusion (aconitin arrhythmia; 0.5 mg/kg i.v.) [min]	time to fibrillation, aconitin infusion (aconitin arrhythmia; 0.5 mg/kg i.v.) [min]	time to chamber extrasystol, aconitin infusion (aconitin arrhythmia; 1.0 mg/kg i.v.) [min]	time to chamber tachycardia, aconitin infusion (aconitin arrhythmia; 1.0 mg/kg i.v.) [min]	time to fibrillation, aconitin infusion (aconitin arrhythmia; 1.0 mg/kg i.v.) [min]	time to chamber extrasystol, aconitin infusion (aconitin arrhythmia; 2.0 mg/kg i.v.) [min]	time to chamber tachycardia, aconitin infusion (aconitin arrhythmia; 2.0 mg/kg i.v.) [min]	time to fibrillation, aconitin infusion (aconitin arrhythmia; 2.0 mg/kg i.v.) [min]	time to chamber extrasystol, aconitin infusion (aconitin arrhythmia; 4.0 mg/kg i.v.) [min]	time to chamber tachycardia, aconitin infusion (aconitin arrhythmia; 4.0 mg/kg i.v.) [min]	time to fibrillation, aconitin infusion (aconitin arrhythmia; 4.0 mg/kg i.v.) [min]	other results
CC1(C)C=C(C(=O)NC(c2ccccc2)c2ccccc2)C(C)(C)N1 [Compound 6]	5.4	23.1	63	–	–	–	–	–	–	–	–	–	–	–	–	–
Cc1cccc(C)c1OCC(C)NC(=O)C1=CC(C)(C)NC1(C)C (stereo not shown) [Compound 9, 2-[N(2,2,5,5-tetramethyl-2,5-dihydro-3-pyrroline-3-carbonyl)]-3-(2,6-dimethyl-phenoxy)-aminopropane]	0.6	0.9	11	7.2 ± 0.06	11.1 ± 0.68	14.6 ± 0.48	9.2 ± 0.10	15.3 ± 0.29	20.9 ± 0.50	13.2 ± 1.21	18.9 ± 0.13	24.6 ± 0.79	–	–	–	–
Cc1cccc(C)c1OCC(C)NC(=O)C1CC(C)(C)NC1(C)C (stereo not shown) [Compound 11, 2-[N-(2,2,5,5-tetramethyl-3-pyrrolidine-3-carbonyl)]-3-(2,6-dimethyl-phenoxy)-amino propane]	0.26	0.39	–	9.9 ± 0.40	15.3 ± 0.52	19.1 ± 0.89	13.2 ± 1.29	19.3 ± 1.24	23.5 ± 0.42	–	–	–	–	–	–	time to chamber extrasystol, aconitin infusion (aconitin arrhythmia; 0.25 mg/kg i.v.): 7.6 ± 0.24 min; time to chamber tachycardia, aconitin infusion (aconitin arrhythmia; 0.25 mg/kg i.v.): 11.3 ± 0.88 min; time to fibrillation, aconitin infusion (aconitin arrhythmia; 0.25 mg/kg i.v.): 15.9 ± 0.49 min; LD50 at 168 h [1]: 1.96 mg/kg
Cc1cccc(C)c1NC(=O)CNC(=O)C1=CC(C)(C)NC1(C)C [Compound 19]	1.53	2.44	53	–	–	–	6.6	10.4 ± 2.58	15.1 ± 0.70	–	–	–	9.8 ± 0.34	16.1 ± 2.62	17.4 ± 1.22	time to chamber extrasystol, aconitin infusion (aconitin arrhythmia; 8.0 mg/kg i.v.): 13.8 ± 0.35 min; time to chamber tachycardia, aconitin infusion (aconitin arrhythmia; 8.0 mg/kg i.v.): 27.0 ± 1.10 min; time to fibrillation, aconitin infusion (aconitin arrhythmia; 8.0 mg/kg i.v.): 30.6 ± 1.72 min
Cc1cccc(C)c1NC(=O)C(C)NC(=O)C1=CC(C)(C)NC1(C)C (stereo not shown) [Compound 20]	1.21	1.91	15	–	–	–	7.1 ± 0.49	12.3 ± 0.42	15.5 ± 0.59	9.2 ± 0.65	15.1 ± 0.22	19.5 ± 0.54	11.7 ± 0.50	18.4 ± 0.75	23.5 ± 1.63	–
C=CC1CN2CCC1CC2C(O)c1ccnc2ccc(OC)cc12 (stereo not shown) [chinidin, reference compound]	6.75	–	–	–	–	–	–	–	–	–	–	–	–	–	–	time to chamber extrasystol, aconitin infusion (aconitin arrhythmia; 5.0 mg/kg i.v.): 6.9 ± 0.06 min; time to chamber tachycardia, aconitin infusion (aconitin arrhythmia; 5.0 mg/kg i.v.): 10.4 ± 0.45 min; time to fibrillation, aconitin infusion (aconitin arrhythmia; 5.0 mg/kg i.v.): 13.7 ± 0.44 min; time to chamber extrasystol, aconitin infusion (aconitin arrhythmia; 10.0 mg/kg i.v.): 8.4 ± 0.42 min; time to chamber tachycardia, aconitin infusion (aconitin arrhythmia; 20.0 mg/kg i.v.): 15.7 ± 0.48 min; time to fibrillation, aconitin infusion (aconitin arrhythmia; 20.0 mg/kg i.v.): 18.1 ± 0.22 min
